Assay: TEM analysis of particles
Type: physicochemical
Details: not complexed with a lipid
Procedure: The white to portion containing mostly light fraction was removed and the yellowish brown fraction on the bottom was used for TEM analysis. A small amount of sample (less than 10 microliters) was placed on the carbon coated grid. The grid was placed on the top of a piece of filter paper and spun an Eppendorf centrifuge for 1 minute at 500 RPM to remove excess water. Samples were air-dried for at least one hour before analysis. If centrifugation was done at too low a speed, water was not removed sufficiently enough, and the sample remained too thick, even after drying, tending to boil when exposed to high vacuum inside the TEM microscope. Centrifugation conditions were adjusted to be gentle enough to avoid damage to the grid or loss of the sample.
The cisplatin solution was briefly sonicated in a bath of room temperature water. At the first signs of cisplatin precipitation and cloudiness, a small volume was taken with a pipette and immediately placed on a carbon coated grid as described in the preceding paragraph.
TEM images were obtained on a Zeiss 910 Transmission Electron Microscope at the Princeton Imaging and Analysis Center, Princeton University, Princeton, N.J. An accelerating high voltage of 100 kV was used, and pictures were captured on a charged couple device (CCD) camera at magnifications of 2000 to 25,000×. […]

SMILES: N.N.[Cl][Pt][Cl] [cisplatin, cis-diamine-dichloroplatinum (II)]
- crystal length: 10-20 microns
- crystal width: approximately 2 microns

From patent US9186322B2, “Platinum aggregates and process for producing the same” (Insmed Incorporated, priority 2002, dated 2015)
